Target: T1, Full length human recombinant HDAC6 protein (Homo sapiens, UniProt Q9UBN7)
T1 construct: made in house
T1 sequence (Q9UBN7 1-1215): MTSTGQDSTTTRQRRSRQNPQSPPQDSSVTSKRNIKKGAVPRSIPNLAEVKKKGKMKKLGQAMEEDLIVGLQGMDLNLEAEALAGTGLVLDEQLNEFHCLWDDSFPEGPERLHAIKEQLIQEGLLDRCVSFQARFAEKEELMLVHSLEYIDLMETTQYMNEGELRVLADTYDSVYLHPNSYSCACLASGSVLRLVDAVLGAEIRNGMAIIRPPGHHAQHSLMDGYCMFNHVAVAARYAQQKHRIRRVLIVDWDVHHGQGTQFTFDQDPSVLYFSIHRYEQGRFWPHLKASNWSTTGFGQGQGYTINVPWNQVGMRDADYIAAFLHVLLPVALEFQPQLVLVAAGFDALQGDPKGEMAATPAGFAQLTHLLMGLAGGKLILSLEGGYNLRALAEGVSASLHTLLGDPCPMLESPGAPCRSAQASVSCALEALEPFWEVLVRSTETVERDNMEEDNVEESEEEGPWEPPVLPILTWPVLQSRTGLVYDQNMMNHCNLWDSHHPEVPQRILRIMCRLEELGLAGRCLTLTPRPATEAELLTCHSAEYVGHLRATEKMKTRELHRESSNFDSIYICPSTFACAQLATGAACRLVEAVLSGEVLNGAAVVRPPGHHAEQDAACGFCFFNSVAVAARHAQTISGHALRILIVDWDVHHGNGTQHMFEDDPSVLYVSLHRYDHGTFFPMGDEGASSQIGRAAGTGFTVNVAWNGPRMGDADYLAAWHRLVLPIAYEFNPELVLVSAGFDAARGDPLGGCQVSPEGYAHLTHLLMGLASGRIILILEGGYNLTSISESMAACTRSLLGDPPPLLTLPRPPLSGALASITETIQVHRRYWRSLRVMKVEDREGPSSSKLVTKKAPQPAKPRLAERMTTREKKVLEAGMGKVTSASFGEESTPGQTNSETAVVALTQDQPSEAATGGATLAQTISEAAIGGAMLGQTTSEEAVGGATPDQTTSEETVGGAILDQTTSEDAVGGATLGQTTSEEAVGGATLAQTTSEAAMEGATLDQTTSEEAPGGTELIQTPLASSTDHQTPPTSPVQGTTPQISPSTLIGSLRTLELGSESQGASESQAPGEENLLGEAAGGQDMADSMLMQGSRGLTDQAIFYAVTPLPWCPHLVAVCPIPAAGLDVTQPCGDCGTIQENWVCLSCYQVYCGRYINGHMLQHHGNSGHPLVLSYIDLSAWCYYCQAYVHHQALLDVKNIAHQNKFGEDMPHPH
Assay: In vitro histone deacetylase assay: enzymatic HDAC6 electrophoretic mobility shift assay
Type: biochemical
Details: peptide substrate RHKK(Ac)-NH2 2 μM, enzyme 1 nM, 25° C., 12 concentrations; read-out: HDAC6 activity range (IC50)
Description: The enzymatic HDAC6 assay was performed using electrophoretic mobility shift assay. Full length human recombinant HDAC6 protein was expressed in baculoviral system and purified by affinity chromatography. The enzymatic reactions were assembled in 384 well plates in a total volume of 25 μL in a reaction buffer composing: 100 mM HEPES, pH 7.5, 25 mM KCl, 0.1% bovine serum albumin, 0.01% Triton X-100, 1% DMSO (from compounds) 2 μM of the fluorescently labeled peptide substrate and enzyme. The enzyme was added at a final concentration of 1 nM. The peptide substrate RHKK(Ac)-NH2 was used. The compounds were tested at 12 concentrations spaced by 3× dilution intervals. Negative control samples (0%-inhibition in the absence of inhibitor) and positive control samples (100%-inhibition) were assembled in replicates of four in each assay plate. The reactions were incubated at 25° C. and quenched by the addition of 45 μL of termination buffer (100 mM HEPES, pH 7.5, 0.01% Triton X-100, 0.05% SDS).
The terminated assay plates were analyzed on LabChip® 3000 microfluidic electrophoresis instrument (Perkin Elmer/Caliper Life Sciences). The fluorescence intensity of the electrophoretically separated de-acetylated product and substrate peptide was measured. Activity in each sample was determined as the product to sum ratio (PSR): P/(S+P), where P is the peak height of the product peptide and S is the peak height of the substrate peptide. Percent inhibition (Pinh) is determined using the following equation:
Pinh=(PSR0%−PSRinh)/(PSR0%−PSR100%)*100, where PSRinh is the product sum ratio in the presence of inhibitor, PSR0% is the average product sum ration in the absence of inhibitor and PSR100% is the average product sum ratio in 100%-inhibition control samples. The IC50 values of inhibitors were determined by fitting the %-inhibition curves with 4 parameter dose-response model using XLfit 4 software.
As set forth in Table-7, below, IC50 values are defined as follows: IC50≤0.01 μM (+++); IC50>0.01 μM and ≤0.05 μM (++); IC50>0.05 μM (+).

How did the IC50 turn out when `O=C(NO)c1ccc2c(c1)C[C@]1(CCCN(c3ccccc3)C1=O)C2` [Compound I-37, (S)—N-hydroxy-2′-oxo-1′-phenyl-1,3-dihydrospiro[indene-2,3′-piperidine]-5-carboxamide] was run?
Its IC50 is 10 to 50 nM.

`O=C(NO)c1ccc2c(c1)C[C@@]1(CCN(c3ccncc3)C1=O)C2` [Compound I-21, (R)—N-hydroxy-2′-oxo-1′-(pyridin-4-yl)-1,3-dihydrospiro[indene-2,3′-pyrrolidine]-5-carboxamide] was tested. Which IC50 did it give?
Its IC50 is 10 to 50 nM.

With `CCN1CC[C@@]2(Cc3ccc(C(=O)NO)cc3C2)C1=O` [Compound I-6, (S)-1′-ethyl-N-hydroxy-2′-oxo-1,3-dihydrospiro[indene-2,3′-pyrrolidine]-5-carboxamide] as the molecule, how does the IC50 read?
Its IC50 is > 50 nM.

For `O=C(NO)c1ccc2c(c1)C[C@]1(CCN(c3ccncc3)C1=O)C2` [Compound I-22, (S)—N-hydroxy-2′-oxo-1′-(pyridin-4-yl)-1,3-dihydrospiro[indene-2,3′-pyrrolidine]-5-carboxamide], which IC50 is on record?
The IC50 was 10 to 50 nM.

How did the IC50 turn out when `CCN1CC[C@]2(Cc3ccc(C(=O)NO)cc3C2)C1=O` [Compound I-5, (R)-1′-ethyl-N-hydroxy-2′-oxo-1,3-dihydrospiro[indene-2,3′-pyrrolidine]-5-carboxamide] was run?
The IC50 was 10 to 50 nM.

Which IC50 does the source give for `O=C(NO)c1ccc2c(c1)C[C@]1(CCN(Cc3ccccc3)C1=O)C2` [Compound I-12, (S)-1′-benzyl-N-hydroxy-2′-oxo-1,3-dihydrospiro[indene-2,3′-pyrrolidine]-5-carboxamide] here?
Its IC50 is 10 to 50 nM.

For `O=C(NO)c1ccc2c(c1)C[C@@]1(CCN(Cc3ccccc3)C1)C2` [Compound I-26, (R)-1′-benzyl-N-hydroxy-1,3-dihydrospiro[indene-2,3′-pyrrolidine]-5-carboxamide], which IC50 is on record?
The IC50 was 10 to 50 nM.

How did the IC50 turn out when `CC(=O)N1CC[C@]2(Cc3ccc(C(=O)NO)cc3C2)C1` [Compound I-28, (R)-1′-acetyl-N-hydroxy-1,3-dihydrospiro[indene-2,3′-pyrrolidine]-5-carboxamide] was run?
Its IC50 is 10 to 50 nM.

How did the IC50 turn out when `O=C(NO)c1ccc2c(c1)C[C@@]1(CCN(c3cccnc3)C1=O)C2` [Compound I-17, (R)—N-hydroxy-2′-oxo-1′-(pyridin-3-yl)-1,3-dihydrospiro[indene-2,3′-pyrrolidine]-5-carboxamide] was run?
The IC50 was ≤ 10 nM.

With `CN1CC[C@@]2(Cc3ccc(C(=O)NO)cc3C2)C1` [Compound I-25, (S)—N-hydroxy-1′-methyl-1,3-dihydrospiro[indene-2,3′-pyrrolidine]-5-carboxamide] as the molecule, how does the IC50 read?
Its IC50 is > 50 nM.

— patent publication US12213969B2, “2-spiro-5- and 6-hydroxamic acid indanes as HDAC inhibitors” (Valo Health, Inc., priority 2016, dated 2025)
